± gives the expanded uncertainty stated by the source.
Settings: Liquid, Vibrating tube method

FC(C(F)(F)F)C(F)(F)F [1,1,1,2,3,3,3-heptafluoropropane]
mass density (303.15 K, 31383 kPa): 1520.3 ± 1.7 kg/m3
mass density (303.15 K, 31415 kPa): 1520.5 ± 1.7 kg/m3
mass density (303.15 K, 31442 kPa): 1520.5 ± 1.7 kg/m3
mass density (303.15 K, 31478 kPa): 1520.6 ± 1.7 kg/m3
mass density (303.15 K, 31506 kPa): 1520.8 ± 1.7 kg/m3
mass density (303.15 K, 31538 kPa): 1520.8 ± 1.7 kg/m3
mass density (303.15 K, 31570 kPa): 1521.1 ± 1.7 kg/m3
mass density (303.15 K, 31607 kPa): 1521.1 ± 1.7 kg/m3
mass density (303.15 K, 31634 kPa): 1521.1 ± 1.7 kg/m3
mass density (303.15 K, 31671 kPa): 1521.3 ± 1.7 kg/m3
mass density (303.15 K, 31699 kPa): 1521.4 ± 1.7 kg/m3
mass density (303.15 K, 31745 kPa): 1521.4 ± 1.7 kg/m3
mass density (303.15 K, 31773 kPa): 1521.7 ± 1.7 kg/m3
mass density (303.15 K, 31806 kPa): 1521.7 ± 1.7 kg/m3
mass density (303.15 K, 31839 kPa): 1521.9 ± 1.7 kg/m3
mass density (303.15 K, 31871 kPa): 1521.8 ± 1.7 kg/m3
mass density (303.15 K, 31914 kPa): 1522 ± 1.7 kg/m3
mass density (303.15 K, 33938 kPa): 1528.3 ± 1.8 kg/m3
mass density (303.15 K, 33968 kPa): 1528.3 ± 1.8 kg/m3
mass density (303.15 K, 34013 kPa): 1528.4 ± 1.8 kg/m3
mass density (303.15 K, 34044 kPa): 1528.6 ± 1.8 kg/m3
mass density (303.15 K, 34091 kPa): 1528.8 ± 1.8 kg/m3
mass density (303.16 K, 1756 kPa): 1377.1 ± 1.5 kg/m3
mass density (303.16 K, 1773 kPa): 1377.2 ± 1.5 kg/m3
mass density (303.16 K, 1841 kPa): 1377.8 ± 1.5 kg/m3
mass density (303.16 K, 2155 kPa): 1380.4 ± 1.5 kg/m3
mass density (303.16 K, 2175 kPa): 1380.5 ± 1.5 kg/m3
mass density (303.16 K, 2196 kPa): 1380.8 ± 1.5 kg/m3
mass density (303.16 K, 2220 kPa): 1380.9 ± 1.5 kg/m3
mass density (303.16 K, 2238 kPa): 1381 ± 1.5 kg/m3
mass density (303.16 K, 2262 kPa): 1381.2 ± 1.5 kg/m3
mass density (303.16 K, 2781 kPa): 1385.3 ± 1.5 kg/m3
mass density (303.16 K, 2809 kPa): 1385.5 ± 1.5 kg/m3
mass density (303.16 K, 2833 kPa): 1385.7 ± 1.5 kg/m3
mass density (303.16 K, 2855 kPa): 1385.8 ± 1.5 kg/m3
mass density (303.16 K, 2874 kPa): 1386.1 ± 1.5 kg/m3
mass density (303.16 K, 2903 kPa): 1386.2 ± 1.5 kg/m3
mass density (303.16 K, 2923 kPa): 1386.5 ± 1.5 kg/m3
mass density (303.16 K, 2945 kPa): 1386.6 ± 1.5 kg/m3
mass density (303.16 K, 2970 kPa): 1386.7 ± 1.5 kg/m3
mass density (303.16 K, 3045 kPa): 1387.3 ± 1.5 kg/m3
mass density (303.16 K, 3161 kPa): 1388.3 ± 1.5 kg/m3
mass density (303.16 K, 3180 kPa): 1388.4 ± 1.5 kg/m3
mass density (303.16 K, 3245 kPa): 1388.9 ± 1.5 kg/m3
mass density (303.16 K, 3334 kPa): 1389.4 ± 1.5 kg/m3
mass density (303.16 K, 4314 kPa): 1396.7 ± 1.5 kg/m3
mass density (303.16 K, 4345 kPa): 1396.9 ± 1.5 kg/m3
mass density (303.16 K, 4366 kPa): 1397.2 ± 1.5 kg/m3
mass density (303.16 K, 4395 kPa): 1397.2 ± 1.5 kg/m3
mass density (303.16 K, 4845 kPa): 1400.4 ± 1.5 kg/m3
mass density (303.16 K, 9092 kPa): 1427.1 ± 1.5 kg/m3
mass density (303.16 K, 9131 kPa): 1427.4 ± 1.5 kg/m3
mass density (303.16 K, 9158 kPa): 1427.5 ± 1.5 kg/m3
mass density (303.16 K, 9192 kPa): 1427.6 ± 1.5 kg/m3
mass density (303.16 K, 9223 kPa): 1427.9 ± 1.5 kg/m3
mass density (303.16 K, 20848 kPa): 1482.9 ± 1.6 kg/m3
mass density (303.16 K, 20912 kPa): 1483.1 ± 1.6 kg/m3
mass density (303.16 K, 20941 kPa): 1483.3 ± 1.6 kg/m3
mass density (303.16 K, 20974 kPa): 1483.4 ± 1.6 kg/m3
mass density (303.16 K, 21003 kPa): 1483.6 ± 1.6 kg/m3
mass density (313.14 K, 2256 kPa): 1337.4 ± 1.5 kg/m3
mass density (313.14 K, 2281 kPa): 1337.6 ± 1.5 kg/m3
mass density (313.14 K, 2307 kPa): 1337.9 ± 1.5 kg/m3
mass density (313.14 K, 2329 kPa): 1337.9 ± 1.5 kg/m3
mass density (313.14 K, 2362 kPa): 1338.4 ± 1.5 kg/m3
mass density (313.14 K, 2381 kPa): 1338.6 ± 1.5 kg/m3
mass density (313.14 K, 2406 kPa): 1338.8 ± 1.5 kg/m3
mass density (313.14 K, 2431 kPa): 1339.2 ± 1.5 kg/m3
mass density (313.14 K, 2463 kPa): 1339.5 ± 1.5 kg/m3
mass density (313.14 K, 2485 kPa): 1339.7 ± 1.5 kg/m3
mass density (313.14 K, 2518 kPa): 1339.8 ± 1.5 kg/m3
mass density (313.14 K, 2546 kPa): 1340.2 ± 1.5 kg/m3
mass density (313.14 K, 2571 kPa): 1340.5 ± 1.5 kg/m3
mass density (313.14 K, 2596 kPa): 1340.7 ± 1.5 kg/m3
mass density (313.14 K, 2621 kPa): 1340.9 ± 1.5 kg/m3
mass density (313.14 K, 2650 kPa): 1341.2 ± 1.5 kg/m3
mass density (313.14 K, 2671 kPa): 1341.5 ± 1.5 kg/m3
mass density (313.14 K, 3117 kPa): 1345.6 ± 1.5 kg/m3
mass density (313.14 K, 3144 kPa): 1345.9 ± 1.5 kg/m3
mass density (313.14 K, 3170 kPa): 1346 ± 1.5 kg/m3
mass density (313.14 K, 3193 kPa): 1346.3 ± 1.5 kg/m3
mass density (313.14 K, 3223 kPa): 1346.7 ± 1.5 kg/m3
mass density (313.14 K, 3247 kPa): 1346.8 ± 1.5 kg/m3
mass density (313.14 K, 3275 kPa): 1347 ± 1.5 kg/m3
mass density (313.14 K, 4237 kPa): 1355.5 ± 1.5 kg/m3
mass density (313.14 K, 4266 kPa): 1355.8 ± 1.5 kg/m3
mass density (313.14 K, 4299 kPa): 1356.1 ± 1.5 kg/m3
mass density (313.14 K, 4328 kPa): 1356.3 ± 1.5 kg/m3
mass density (313.14 K, 4487 kPa): 1357.8 ± 1.5 kg/m3
mass density (313.14 K, 4509 kPa): 1358 ± 1.5 kg/m3
mass density (313.14 K, 4539 kPa): 1358.2 ± 1.5 kg/m3
mass density (313.14 K, 4561 kPa): 1358.3 ± 1.5 kg/m3
mass density (313.14 K, 4590 kPa): 1358.4 ± 1.5 kg/m3
mass density (313.14 K, 4614 kPa): 1358.7 ± 1.5 kg/m3
mass density (313.14 K, 4639 kPa): 1359 ± 1.5 kg/m3
mass density (313.14 K, 4660 kPa): 1359.2 ± 1.5 kg/m3
mass density (313.14 K, 4688 kPa): 1359.4 ± 1.5 kg/m3
mass density (313.14 K, 4710 kPa): 1359.5 ± 1.5 kg/m3
mass density (313.14 K, 5002 kPa): 1362.2 ± 1.5 kg/m3
mass density (313.14 K, 6187 kPa): 1371.4 ± 1.5 kg/m3
mass density (313.14 K, 6210 kPa): 1371.5 ± 1.5 kg/m3
mass density (313.14 K, 6240 kPa): 1371.6 ± 1.5 kg/m3
mass density (313.14 K, 6264 kPa): 1371.8 ± 1.5 kg/m3

Source: the NIST ThermoML archive (doi:10.1021/je700260f)
